The target in data set [1] is Histamine H2 receptor (Homo sapiens) (UniProt P25021). In words: Antagonist activity at H2R (unknown origin) expressed in HEK293 cells harboring glosensor-22F cAMP plasmid DNA assessed as effect on forskolin-stimulated cAMP accumulation at 10 uM preincubated with cells followed by forskolin addition measured after 10 mins by luminescence assay. The format is functional, cell-based. (Cyclic AMP is a second messenger, typically raised through Gs and lowered through Gi signalling.)
Chain of Histamine H2 receptor (Homo sapiens) (P25021 whole entry): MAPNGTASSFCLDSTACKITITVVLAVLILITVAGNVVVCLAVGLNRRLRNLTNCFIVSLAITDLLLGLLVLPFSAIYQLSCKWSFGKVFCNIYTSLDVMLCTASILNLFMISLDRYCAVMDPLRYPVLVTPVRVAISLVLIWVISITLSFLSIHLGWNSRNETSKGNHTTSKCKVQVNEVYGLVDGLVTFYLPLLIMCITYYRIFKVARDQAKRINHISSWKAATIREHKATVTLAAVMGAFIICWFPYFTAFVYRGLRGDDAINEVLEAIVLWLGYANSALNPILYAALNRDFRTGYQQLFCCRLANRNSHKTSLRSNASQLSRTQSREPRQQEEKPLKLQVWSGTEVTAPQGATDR

Data set [2] concerns the target T1, Histamine H3 receptor (Homo sapiens, UniProt Q9Y5N1). Put plainly: Agonist activity at human H3R expressed in HEK293 cells harboring glosensor-22F cAMP plasmid DNA assessed as inhibition of forskolin-stimulated cAMP accumulation preincubated with cells followed by forskolin addition measured after 10 mins by luminescence assay. It counts as functional, cell-based. Conditions: read-out: EC50.

The subject of data set [3] is Mus musculus. In words: Anorexic effect in diet-induced obese C57BL/6J mouse assessed as reduction in cumulative food intake at 20 mg/kg, po pretreated for 30 mins followed by food addition measured after 4 hrs. It counts as functional, organism-based.
The test system of another data set is HEK-293T. In words: Cytotoxicity against HEK293T cells assessed as reduction in cell viability at 1 to 10 uM after 24 hrs by XTT assay. Conditions: human. The format is cell-based.
Data set [4] deals with Histamine H1 receptor (Homo sapiens) (UniProt P35367). In words: Antagonist activity at H1R (unknown origin) expressed in HEK293 cells harboring luc2P/NFAT-RE plasmid at 10 uM after 6 to 8 hrs by luciferase reporter gene assay. The format is functional, cell-based.
Chain of Histamine H1 receptor (Homo sapiens) (P35367 whole entry): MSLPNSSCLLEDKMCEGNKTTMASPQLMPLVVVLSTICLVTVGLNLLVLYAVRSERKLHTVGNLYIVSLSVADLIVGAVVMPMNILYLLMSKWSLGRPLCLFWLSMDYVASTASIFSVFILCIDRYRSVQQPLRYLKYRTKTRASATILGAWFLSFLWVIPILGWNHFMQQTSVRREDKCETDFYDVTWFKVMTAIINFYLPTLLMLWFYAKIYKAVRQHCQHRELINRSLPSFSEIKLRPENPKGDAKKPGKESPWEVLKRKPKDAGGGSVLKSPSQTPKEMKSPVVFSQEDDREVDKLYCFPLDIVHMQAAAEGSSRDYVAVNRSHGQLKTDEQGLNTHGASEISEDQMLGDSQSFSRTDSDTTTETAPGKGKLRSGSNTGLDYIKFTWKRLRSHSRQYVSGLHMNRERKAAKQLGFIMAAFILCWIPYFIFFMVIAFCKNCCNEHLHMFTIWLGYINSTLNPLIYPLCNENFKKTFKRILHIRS
The target in data set [5] is Histamine H4 receptor (Homo sapiens) (UniProt Q9H3N8). In words: Agonist activity at H4R (unknown origin) expressed in HEK293 cells harboring glosensor-22F cAMP plasmid DNA assessed as inhibition of forskolin-stimulated cAMP accumulation at 10 uM preincubated with cells followed by forskolin addition measured after 10 mins by luminescence assay. It counts as functional, cell-based.
Chain of Histamine H4 receptor (Homo sapiens) (Q9H3N8 whole entry): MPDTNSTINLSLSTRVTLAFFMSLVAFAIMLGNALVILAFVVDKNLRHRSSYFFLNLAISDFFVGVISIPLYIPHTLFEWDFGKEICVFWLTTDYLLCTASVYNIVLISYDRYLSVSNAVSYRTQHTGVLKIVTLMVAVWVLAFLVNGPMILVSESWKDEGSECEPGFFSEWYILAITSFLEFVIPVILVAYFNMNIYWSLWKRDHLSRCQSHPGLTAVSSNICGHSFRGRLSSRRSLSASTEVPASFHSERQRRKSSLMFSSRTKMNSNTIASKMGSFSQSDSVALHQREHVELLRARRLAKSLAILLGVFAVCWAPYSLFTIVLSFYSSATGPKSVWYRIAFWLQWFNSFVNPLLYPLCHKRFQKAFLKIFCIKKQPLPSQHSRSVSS

Data set [6] has as its target T2, 5-hydroxytryptamine receptor 2C (Homo sapiens) (UniProt P28335).
T2 sequence (whole entry): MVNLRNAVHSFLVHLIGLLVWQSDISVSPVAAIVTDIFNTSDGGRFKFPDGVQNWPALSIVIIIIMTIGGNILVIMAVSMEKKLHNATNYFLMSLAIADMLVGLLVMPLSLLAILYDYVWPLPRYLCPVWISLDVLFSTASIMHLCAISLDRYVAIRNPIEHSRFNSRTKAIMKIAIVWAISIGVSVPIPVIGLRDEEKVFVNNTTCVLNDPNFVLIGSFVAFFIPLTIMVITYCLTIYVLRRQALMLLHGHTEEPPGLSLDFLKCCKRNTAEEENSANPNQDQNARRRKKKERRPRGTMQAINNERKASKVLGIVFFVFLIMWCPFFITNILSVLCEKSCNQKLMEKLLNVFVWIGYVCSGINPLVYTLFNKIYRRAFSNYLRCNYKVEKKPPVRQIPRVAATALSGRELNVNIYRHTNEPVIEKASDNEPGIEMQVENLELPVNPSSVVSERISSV
In words: Antagonist activity at human 5-HT2C expressed in HEK293 cells harboring luc2P/NFAT-RE plasmid at 10 uM after 6 to 8 hrs by luciferase reporter gene assay. The format is functional, cell-based. For orientation: Reporter assays use an easily measured gene product as a stand-in for the process of interest.

Data set [7] in a line: Octanol/water partition co-efficient, log P of the compound after 24 hrs by HPLC based shake-flask method. It counts as physicochemical.
Data set [8] has as its target Histamine H2 receptor (Homo sapiens) (UniProt P25021). In words: Agonist activity at H2R (unknown origin) expressed in HEK293 cells harboring glosensor-22F cAMP plasmid DNA assessed as inhibition of forskolin-stimulated cAMP accumulation at 10 uM preincubated with cells followed by forskolin addition measured after 10 mins by luminescence assay. The format is functional, cell-based.

For data set [9], the target named is T2, 5-hydroxytryptamine receptor 2C (Homo sapiens). Put plainly: Agonist activity at human 5-HT2C expressed in HEK293 cells harboring luc2P/NFAT-RE plasmid at 10 uM after 6 to 8 hrs by luciferase reporter gene assay. The format is functional, cell-based.
The test system of data set [10] is Mus musculus. In words: Anorexic effect in diet-induced obese C57BL/6J mouse assessed as reduction in cumulative food intake at 10 mg/kg, po pretreated for 30 mins followed by food addition measured after 4 hrs. It counts as functional, organism-based.
The target of data set [11] is T1, Histamine H3 receptor. In words: Agonist activity at human H3R expressed in HEK293 cells harboring glosensor-22F cAMP plasmid DNA assessed as inhibition of forskolin-stimulated cAMP accumulation at 1 uM preincubated with cells followed by forskolin addition measured after 10 mins in presence of H3R antagonist GSK334429 by luminescence assay. The format is functional, cell-based.

Data set [12] concerns the target Histamine H1 receptor (Homo sapiens) (UniProt P35367). In words: Agonist activity at H1R (unknown origin) expressed in HEK293 cells harboring luc2P/NFAT-RE plasmid at 10 uM after 6 to 8 hrs by luciferase reporter gene assay. It counts as functional, cell-based.
The target in data set [13] is Luciferin 4-monooxygenase (Photinus pyralis) (UniProt P08659). Put plainly: Inhibition of firefly luciferase activity expressed in HEK293 cells assessed as reduction in forskolin-stimulated cAMP accumulation up to 10 uM preincubated with cells followed by forskolin addition measured after 10 mins by luminescence assay. It counts as cell-based.
Chain of Luciferin 4-monooxygenase (Photinus pyralis) (P08659 whole entry): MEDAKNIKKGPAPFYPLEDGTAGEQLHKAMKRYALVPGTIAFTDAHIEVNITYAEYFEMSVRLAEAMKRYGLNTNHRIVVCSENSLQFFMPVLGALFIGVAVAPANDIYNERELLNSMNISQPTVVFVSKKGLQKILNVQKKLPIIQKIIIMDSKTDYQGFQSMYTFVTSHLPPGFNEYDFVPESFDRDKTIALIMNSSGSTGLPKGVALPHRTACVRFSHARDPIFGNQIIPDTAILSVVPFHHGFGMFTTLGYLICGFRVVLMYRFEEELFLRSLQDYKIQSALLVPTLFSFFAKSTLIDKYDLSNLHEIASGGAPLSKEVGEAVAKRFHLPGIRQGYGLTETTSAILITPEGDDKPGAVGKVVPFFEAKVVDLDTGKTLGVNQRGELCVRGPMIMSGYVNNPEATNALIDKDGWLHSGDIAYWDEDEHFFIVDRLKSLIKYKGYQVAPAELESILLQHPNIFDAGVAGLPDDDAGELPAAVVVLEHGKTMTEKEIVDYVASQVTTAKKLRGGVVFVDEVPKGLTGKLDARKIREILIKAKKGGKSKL
Data set [14] has as its target Histamine H4 receptor (Homo sapiens) (UniProt Q9H3N8). Put plainly: Antagonist activity at H4R (unknown origin) expressed in HEK293 cells harboring glosensor-22F cAMP plasmid DNA assessed as effect on forskolin-stimulated cAMP accumulation at 10 uM preincubated with cells followed by forskolin addition measured after 10 mins by luminescence assay. It counts as functional, cell-based.

Data on three molecules can be found in ChEMBL document CHEMBL4152237, “Identification of novel β-lactams and pyrrolidinone derivatives as selective Histamine-3 receptor (H3R) modulators as possible anti-obesity agents” (Eur J Med Chem, 2018).

Active and inactive are the calls of the source. Unless noted, no cut-off for these calls is given here.

T1 sequence (Q9Y5N1 whole entry): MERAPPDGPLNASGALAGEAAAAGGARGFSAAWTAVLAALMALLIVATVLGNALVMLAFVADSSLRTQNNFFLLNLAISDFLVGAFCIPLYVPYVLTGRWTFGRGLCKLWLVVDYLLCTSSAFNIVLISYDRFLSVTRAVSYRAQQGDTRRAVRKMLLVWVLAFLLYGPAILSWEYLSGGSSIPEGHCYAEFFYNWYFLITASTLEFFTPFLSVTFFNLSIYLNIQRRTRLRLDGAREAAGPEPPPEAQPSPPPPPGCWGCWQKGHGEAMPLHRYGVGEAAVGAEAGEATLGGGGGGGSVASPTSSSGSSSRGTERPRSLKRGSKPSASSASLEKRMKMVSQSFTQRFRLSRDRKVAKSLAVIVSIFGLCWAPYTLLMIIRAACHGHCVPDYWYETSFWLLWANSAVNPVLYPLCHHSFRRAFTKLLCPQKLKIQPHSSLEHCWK

Take `COc1cc(NC2(c3cccc(Cl)c3)C(=O)N(C(C)(C)C)C(=O)/C2=C/c2ccccc2)cc(OC)c1OC` (centres undefined): the inhibition result (in data set [1]; in data set [4]; in [5]; in data set [6]; in data set [8]; on Histamine H3 receptor [11]) was “inactive” in each case. Also, the inhibition result in data set [13] and in data set [14] was “inactive” in each case. The EC50 – broadly, the midpoint of the concentration-response curve – on Histamine H3 receptor [2] is 2.7 nM. In the data set with Mus musculus [3], the result was Active. The Activity entry with HEK-293T is “Non-Toxic”. The logP (commonly a log measure of how a compound divides between an organic and an aqueous phase) at 24 h in [7] was 2.96. The outcome (in [9]; in the data set with Mus musculus [10]; in data set [12]) was inactive.

As for `O=C1C=CC2(C=C1)C(c1ccccc1)=CC(=O)N2C(C(=O)NC1CCCCC1)c1ccc(Cl)cc1` (centres undefined), the inhibition result (in data set [1]; in [4]; in data set [5]; in data set [6]; in data set [8]; on Histamine H3 receptor [11]) was “inactive” each time. The inhibition entry in data set [13] and in data set [14] was “inactive” throughout. Besides, the EC50 on Histamine H3 receptor [2] turned out to be 104 nM. Also, the Activity result with HEK-293T is on record as “Non-Toxic”. The logP at 24 h in data set [7] was found to be 3.8. Besides, the outcome in data set [9] and in [12] was inactive.

As to `C[C@H]1CNCCc2ccc(Cl)cc21`, the result in the data set on Mus musculus [10] was Active.
